What was measured:
[1] = target: T1, human STING (hSTING) (Homo sapiens, UniProt Q86WV6); assay: Inhibition test of intracellular human STING (hSTING) pathway using SEAP reporter cells (HEK-Blue ISG), stimulation with Compound 3; format: cell-based; design: hSTING inhibitory activity: scale not given here; details: Compound 3 10 nM stimulation, 21 hours
T1 construct: host or cells: HEK-Blue ISG cells (HEK293-derived SEAP reporter line)
Outline: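 HEK-Blue ISG cells with IRF-inducible SEAP reporter, pretreated 1 h with compound (final 0.1 to 10 μM), then stimulated with Compound 3 (final 10 nM) for 21 h at 37° C. Supernatant SEAP measured colorimetrically; IC50 from log-concentration regression, normalized to stimulated (100%) and unstimulated (0%) controls.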

[2] = tested on: STING activation (IFN-β production in THP-1 cells); assay: Human IFN-β production inhibition test by cGAMP stimulation in THP-1 cells; format: cell-based; design: IFN-β bioinhibitory activity: scale not given here; details: 2'3'-cGAMP transfection, 18 hours, IFN-β ELISA; for IC50: Homo sapiens, read-out: IFN-β bioinhibitory activity
Outline: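 PMA-primed (100 nM, overnight) THP-1 cells pretreated 1 h with compound at 0.001 to 1 μM (0.1% DMSO), then transfected with 0.12 μg/well 2′3′-cGAMP and cultured 18 hours. Supernatant IFN-β measured by ELISA; IC50 by regression against log concentration, normalised to cGAMP-only (100%) and unstimulated (0%) controls.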

T1 sequence (Q86WV6 whole entry H232R): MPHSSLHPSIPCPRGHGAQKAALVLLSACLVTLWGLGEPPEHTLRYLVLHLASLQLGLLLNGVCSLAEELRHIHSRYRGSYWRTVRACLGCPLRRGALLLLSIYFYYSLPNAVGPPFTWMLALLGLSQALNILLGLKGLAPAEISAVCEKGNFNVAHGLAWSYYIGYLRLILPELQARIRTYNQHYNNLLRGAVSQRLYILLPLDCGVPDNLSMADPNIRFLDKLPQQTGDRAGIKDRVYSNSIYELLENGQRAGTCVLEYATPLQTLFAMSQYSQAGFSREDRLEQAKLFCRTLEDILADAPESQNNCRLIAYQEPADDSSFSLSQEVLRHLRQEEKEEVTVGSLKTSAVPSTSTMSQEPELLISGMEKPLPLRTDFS

## FC(F)(F)c1ccc2[nH]c(Nc3c[nH]c4ccc(Cl)cc34)nc2c1 [Embodiment 268, N-(5-Chloro-1H-indol-3-yl)-5-(trifluoromethyl)-1H-benzo[d]imidazol-2-amine]
[1]
  hSTING inhibitory activity: * *
[2]
  IFN-β bioinhibitory activity: * *

## Nn1c(Nc2c[nH]c3ccc(Cl)cc23)nc2cc(C(F)(F)F)cc(F)c21 [Embodiment 269, N2-(5-Chloro-1H-indol-3-yl)-7-fluoro-5-(trifluoromethyl)-1H-benzo[d]imidazole-1,2-diamine]
[1]
  hSTING inhibitory activity: * * *
[2]
  IFN-β bioinhibitory activity: * *

## Brc1ccc2[nH]cc(Nc3nc4cc(Oc5ccccc5)ccc4[nH]3)c2c1 [Example 3, N-(5-bromo-1H-indol-3-yl)-5-phenoxy-1H-benzo[d]imidazol-2-amine]
[1]
  hSTING inhibitory activity: * *
[2]
  IFN-β bioinhibitory activity: * *

## Clc1ccc2[nH]c(Nc3c[nH]c4ccc(Br)cc34)nc2c1 [Example 4, N-(5-bromo-1H-indol-3-yl)-5-chloro-1H-benzo[d]imidazol-2-amine]
[1]
  hSTING inhibitory activity: * * *
[2]
  IFN-β bioinhibitory activity: * *

## COc1ccc2[nH]c(Nc3c[nH]c4ccc(Br)cc34)nc2c1 [Example 6, N-(5-bromo-1H-indol-3-yl)-5-methoxy-1H-benzo[d]imidazol-2-amine]
[1]
  hSTING inhibitory activity: * *
[2]
  IC50: 100 to 1000 nM

## Brc1ccc2[nH]c(Nc3c[nH]c4ccc(Br)cc34)nc2c1 [Example 7, 5-bromo-N-(5-bromo-1H-indol-3-yl)-1H-benzo[d]imidazol-2-amine]
[1]
  hSTING inhibitory activity: * * *
[2]
  IFN-β bioinhibitory activity: * *

## FC(F)(F)c1ccc2[nH]c(Nc3c[nH]c4ccc(Br)cc34)nc2c1 [Example 8, N-(5-bromo-1H-indol-3-yl)-5-(trifluoromethyl)-1H-benzo[d]imidazol-2-amine]
[1]
  hSTING inhibitory activity: * *
[2]
  IFN-β bioinhibitory activity: * *

## Brc1ccc2[nH]cc(Nc3nc4cc(Oc5ccccc5)ccc4[nH]3)c2n1 [Example 12, N-(5-bromo-1H-pyrrolo[3,2-b]pyridin-3-yl)-5-phenoxy-1H-benzo[d]imidazol-2-amine]
[1]
  hSTING inhibitory activity: * *
[2]
  IC50: 100 to 1000 nM

## Cn1c(Nc2c[nH]c3ccc(Br)cc23)nc2ccccc21 [Example 18, N-(5-bromo-1H-indol-3-yl)-1-methyl-1H-benzo[d]imidazol-2-amine]
[1]
  hSTING inhibitory activity: * *
[2]
  IC50: ≥ 1000 nM

## N#Cc1ccc2[nH]c(Nc3c[nH]c4ccc(Br)cc34)nc2c1 [Example 19, 2-[(5-bromo-1H-indol-3-yl)amino]-1H-benzo[d]imidazole-5-carbonitrile]
[1]
  hSTING inhibitory activity: * *
[2]
  IC50: 100 to 1000 nM

## Brc1ccc2[nH]cc(Nc3nc4c(Br)cccc4[nH]3)c2c1 [Example 24, 4-bromo-N-(5-bromo-1H-indol-3-yl)-1H-benzo[d]imidazol-2-amine]
[1]
  hSTING inhibitory activity: * *
[2]
  IFN-β bioinhibitory activity: * *

## Fc1cccc2[nH]c(Nc3c[nH]c4ccc(Br)cc34)nc12 [Example 25, N-(5-bromo-1H-indol-3-yl)-4-fluoro-1H-benzo[d]imidazol-2-amine]
[1]
  hSTING inhibitory activity: * *
[2]
  IFN-β bioinhibitory activity: * *

## CN(C)c1cccc(Oc2ccc3[nH]c(Nc4c[nH]c5ccc(Br)cc45)nc3c2)c1 [Example 26, N-(5-bromo-1H-indol-3-yl)-5-[3-(dimethylamino)phenoxy]-1H-benzo[d]imidazol-2-amine]
[1]
  hSTING inhibitory activity: * *
[2]
  IFN-β bioinhibitory activity: * *

## FC(F)(F)c1ccc2[nH]c(Nc3c[nH]c4ccc(Br)nc34)nc2c1 [Example 31, N-(5-bromo-1H-pyrrolo[3,2-b]pyridin-3-yl)-5-(trifluoromethyl)-1H-benzo[d]imidazol-2-amine]
[1]
  hSTING inhibitory activity: * *
[2]
  IFN-β bioinhibitory activity: * * *

Reference: patent publication US20240279205A1, “NOVEL BENZIMIDAZOLE DERIVATIVE” (Carna Biosciences, Inc., priority 2020, published 2024)
